Reference: patent US20070142396A1, “Treatment of pain with 1-[3-[4-(3-chlorophenyl)-1-piperazinyl]propyl]-5-methoxy-3,4-dihydro-2(1H)-quinolone or salt thereof” (Vela Pharmaceuticals, Inc., priority 2005, published 2007)

Columns and labels:
[1] = test system: rats with L5 spinal nerve ligation (SNL model); test: Spinal nerve ligation (L5) neuropathic pain model, von Frey filaments, dose range (Example 5); assay type: in vivo, rat; conditions: gabapentin 100 mg/kg p.o.
Excerpt: (§1) The spinal nerve ligation (SNL) model of neuropathic pain was produced in all rats as described by Kim and Chung (Pain, 50, 355-363, 1992). Briefly, under gaseous anesthesia using halothane (3% for induction and 1.5% for maintenance) in oxygen, the left L5 spinal nerve was exposed by removing the paraspinal muscles and the transverse process of the L6 vertebra. The very proximal portion of the L5 spinal nerve was tightly ligated with 6-0 silk suture. The wounds were closed and anesthesia was discontinued. Rats were kept on a heated blanket until they had completely recovered from anesthesia.
Behavioral tests were conducted in a non-blind fashion. The foot withdrawal threshold to mechanical stimuli applied to the paw (mechanical threshold) was measured, as an indicator of mechanical sensitivity of the affected paw. The foot withdrawal threshold was measured using von Frey filaments. It is generally thought that von Frey filaments are more sensitive than electronic von Frey probes for measuring tactile stimulation. The mechanical thresholds were measured by using the “up-and-down” method (Chaplan et al., J. Neurosci. Methods 53(1):55-63, 1994), following the procedures described in previous studies (Park et al., Pain 87(2):171-179, 2000; Xie et al., J. Pain 2(5):270-278, 2001; Baik et al., J. Pain 4:212-221, 2003). In brief, rats were placed in a transparent plastic box on a metal wire mesh floor. To determine the threshold stiffness required for 50% paw withdrawal, a series of eight von Frey filaments with approximately equal logarithmic incremental (0.22) von Frey values (3.65, 3.87, 4.10, 4.31, 4.52, 4.74, 4.92, and 5.16) were used. Von Frey (VF) values are logarithmically related to gram (g) values (VF=log (10,000×g)). The chosen von Frey values are therefore equivalent to 0.45, 0.74, 1.26, 2.04, 3.31, 5.50, 8.32, and 14.45 in gram value, respectively. Starting with filament 4.31, von Frey filaments were applied perpendicularly to the ventral surface of the proximal part of the third or fourth toe for 2-3 seconds. Whenever a positive response to a stimulus occurred (paw withdrawal), the next smaller von Frey hair was applied. Whenever a negative response occurred, the next larger one was applied. The test was continued until the response of six stimuli after the first change in response had been obtained or the test had reached either end of the spectrum of the von Frey set.
The 50% threshold value was then calculated using Dixon's formula (Dixon, Ann. Rev. Phar. Tox. 20:441-462, 1980): 50% threshold=X+kd, where X is the value of the final von Frey hair used (in log units), k is the tabular value for the pattern of positive/negative responses, and d is the mean difference between stimuli in log units (0.22). In the cases where continuous positive or negative responses were observed all the way out to the end of the stimulus spectrum, values of 3.54 or 5.27 were assigned, respectively, by assuming a value of (−/+) 0.5 for k in these cases (Dixon, supra, 1980). Outcome of behavioral data were expressed as von Frey values (maximum range from 3.54 to 5.27) and plotted in a linear scale.
Data were expressed as the mean±standard errors of mean (SEM). Differences in mechanical thresholds at various times after injections were tested using two-way (time and group factors) analysis of variance (ANOVA), followed by the Duncan's post-hoc test for multiple comparisons. Statistical analyses were done using the SAS® software program (SAS Institute Inc, Cary, N.C.). Two-tailed p-values<0.05 were considered to be significant.
This experiment was conducted on 8 rats in a Latin-square design examining a dose response of OPC-14523. Gabapentin was prepared at 10 mg/ml in 0.5% tragacanth and administered at 100 mg/kg p.o. Behavioral tests were conducted in a blind fashion twice (1 day and 1 hour) before as well as 1 and 4 days after the neuropathic surgery. […] These 8 rats were randomly divided into 6 groups of 1-2 rats. […]

[2] = test system: rats with L5 spinal nerve ligation (SNL model); test: Spinal nerve ligation (L5) neuropathic pain model, mechanical threshold with von Frey filaments (Example 4); assay type: in vivo, rat; conditions: gabapentin 50 mg/kg i.p.
Excerpt: A total of 18 Sprague-Dawley (CD sub-strain) young adult (weight: 150-175 g) male rats were purchased from Harlan Sprague Dawley Company (Indianapolis, Ind.), Alabama colony. The rats were kept three per cage and had free access to food and water. Animals were kept in a room with a reversed light-dark cycle (light: 8:00 PM-8:00 AM) for 1 week before experimental manipulations. Ten rats were allocated to the present study. Eight rats were allocated to the study of Example 5, below.
as §1
OPC-14523 was dispersed in 0.5% tragacanth in distilled water at 20 mg/ml. It was administered as a oral injection in a dose of 100 mg/kg body weight. Gabapentin was prepared at 10 mg/ml in saline and was administered at 50 mg/kg body weight i.p. Gabapentin is a drug that was originally developed as an anticonvulsant but is now widely used as an analgesic for neuropathic pain (Abdi et al., Anesthesia & Analgesia 87:1360-1366 (1998)).
Ten rats were utilized in a Latin-square-design study comparing the activity of OPC-14523 and other compounds against neuropathic pain. Behavioral tests were conducted twice (1 day and 1 hour) before, as well as 1 and 4 days after, the neuropathic surgery. […] The ten rats were randomly divided into five groups of two rats each. […]
This procedure was repeated five times. […] The result was that all ten animals received each of the indicated five compounds in random order and then had mechanical thresholds determined at the indicated times.
Behavioral tests were conducted in a non-blind fashion. The foot withdrawal threshold to mechanical stimuli applied to the paw (mechanical threshold) was measured, as an indicator of mechanical sensitivity of the affected paw. The foot withdrawal threshold was measured using von Frey filaments. […] The mechanical thresholds were measured by using the “up-and-down” method (Chaplan et al., J. Neurosci. Methods 53(1):55-63, 1994), following the procedures described in previous studies (Park et al., Pain 87(2):171-179, 2000; Xie et al., J. Pain 2(5):270-278, 2001; Baik et al., J. Pain 4:212-221, 2003). […]

## NCC1(CC(=O)O)CCCCC1 [Gabapentin, gabapentin, reference compound]
[1]
  effect on mechanical threshold of the lesioned paw for foot withdrawals: significant increase
[2]
  level of mechanical threshold increase relative to threshold prior to ligation: about half of the mechanical threshold observed prior to the ligation
[2]; 0.5-6 hours
  effect on mechanical threshold of the lesioned paw for foot withdrawals: significantly increased
